Data from patent US10314816B2, “Antimicrobial compounds, compositions and methods of use thereof” (Wisconsin Alumni Research Foundation, priority 2012, dated 2019).

Assays:
C. crescentus CB15N [1] = experiment: MIC of bacterial growth, macrodilution (Table 2); type: cell-based, Caulobacter crescentus; details: Caulobacter vibrioides, actively growing cells, read-out: MIC
Procedure: Bacterial strains and growth conditions. Luria-Bertani (LB) media (10 g/L tryptone, 10 g/L NaCl, 5 g/L yeast extract, pH 7.2) was used to grow B. subtilis 168, S. aureus FRI100, and P. aeruginosa K1115 strains. For P. aeruginosa PAO1 and K1119 strains and two E. coli BW25113 strains, M8 minimal media (241 mg/L MgSO4, 4 mg/L glucose, 5 mg/L casamino acids, 12.8 g/L Na2HPO4.7H2O, 3 g/L KH2PO4, and 0.5 g/L NaCl) was used. PYE media (2 g/L peptone, 1 g/L yeast extract, 0.8 mM MgSO4, and 0.5 mM CaCl2) was used for culturing C. crescentus cells at 30° C. All cultures were grown at 37° C., except for C. crescentus (30° C.). All cultures were grown while shaking at 200 rpm.
Determination of the minimum inhibitory concentration (MIC) of bacterial growth. The MIC of various organisms in liquid media was determined using the macrodilution method according to the NCCLS guidelines. For the starting inoculum, cultures were diluted to contain approximately 5×10^5 cells/mL in growth media. To create a two-fold dilution series for the macrodilution technique, each compound was added to the first culture tube (4 mL total volume) at the highest concentration. 2 mL of this culture was diluted into an equal volume of inoculated media (a two-fold dilution). The final volume for each culture was 2 mL.

S. aureus FRI 100 = experiment: Minimum stationary-bactericidal concentration (MSC); type: cell-based, Staphylococcus aureus; details: for MSC: S. aureus FRI 100, stationary cells, 24 hours
Procedure: Determination of the Minimum Stationary-Bactericidal Concentration.
Cultures of C. crescentus (24 hour incubation) and S. aureus cells (5 day incubation) were grown from single colonies. Cells were collected by centrifugation (8500 rpm for 2.5 minutes) and re-suspended in M2 salt solution (for C. crescentus; 1.74 g/L Na2HPO4, 1.06 g/L KH2PO4, and 0.5 g/L NH4Cl) or phosphate-buffered saline (for S. aureus; PBS, Fisher Scientific). The centrifugation and re-suspension was repeated two more times. After the repeated washing steps, the cell suspension was diluted 10-fold to achieve approximately 10^8 cells/mL. Aliquots of the diluted cell suspension were transferred into wells of a 96-well plate (100 μL/well), and 2-fold serial dilutions were performed to test a range of antibiotic concentrations. The plate was sealed with Parafilm® and incubated for 24 hours at room temperature in the dark. After incubation, 50 μl was removed from each well to spread on nutrient agar plates (1.5% agar in PYE for C. crescentus, and LB for S. aureus). The colonies on each plate were counted after growing the cells for 1-2 days. For determining the kinetics of bactericidal activity of DCAP on stationary cultures, the washed cells were diluted by 100-fold in appropriate solutions and tested using a single concentration of the compound while including a DMSO control sample. Cell suspensions were kept in closed microcentrifuge tubes instead of the wells of 96-well plates. 100 μL of the suspensions was removed for plating at each time point. All MSC experiments were performed in static conditions.
In addition to its activity against actively growing bacteria, DCAP kills cells in stationary phase (Table 3). This property was tested against C. crescentus and S. aureus. […] To ensure that bacteria were deprived of nutrients, the cells were grown into late stationary phase (i.e., 24 hours for C. crescentus and 5 days for S. aureus). These cells were collected, suspended in isotonic solutions devoid of amino acids or sugars, and treated with a small molecule (DMSO, DCAP, CCCP or ampicillin). Cell viability was measured over time by plating culture aliquots on non-selective, solid growth media. The minimum concentration of antibiotic required to completely eliminate colony formation was designated as the minimum stationary-bactericidal concentration (MSC). […] CCCP inhibited the proliferation of C. crescentus cells regardless of their physiological status. However, the MSC of CCCP for S. aureus was >300-fold higher than the MIC. This dramatic decrease in the effectiveness of CCCP in S. aureus may be due to changes in membrane composition as cells adjust their metabolism in nutrient-deprived conditions.

C. crescentus CB15N [2] = experiment: Minimum biofilm inhibitory concentration (bMIC); type: cell-based, Caulobacter crescentus
Procedure: Determination of the minimum biofilm inhibitory concentration of growth (bMIC) and biofilm eradication concentration (MBEC). Overnight cultures of C. crescentus and S. aureus were grown and diluted 100-fold into appropriate nutrient media. Aliquots of the diluted suspension were transferred into wells of 96-well plates (150 μL/well). 2-fold serial dilutions were performed for compound-containing wells. For every experiment, three replicates for each compound concentration tested were included. After transferring aliquots of the suspension, the plates were closed with specialized lids that have protruding pins (Nunc STP System), and the plates were sealed using Parafilm®. The plates were incubated in a static incubator at 30° C. (C. crescentus) or 37° C. (S. aureus) for 24 hours. After the cells had formed biofilms on the surface of the pins, the pins were rinsed by dipping them in M2 (C. crescentus) or PBS (S. aureus) solutions. To rinse the pins, clean, sterile 96-well plates were used (aliquots of 200 μL/well); each rinse lasted 10 sec. After washing away planktonic cells loosely bound to biofilms, the pins were inserted into a 96-well plate that was pre-aliquoted with nutrient media containing antibiotics (2-fold dilutions, a final volume of 150 μL/well). The plates were sealed with Parafilm®, and incubated for 17 hours, and the bMIC was measured at the end of the incubation by visual inspection. […] The plates were sealed with Parafilm®, incubated for 24 hours, and the MBEC was measured at the end of the incubation by visual inspection.
Membrane-active compounds are also efficient at eradicating biofilm-associated cells (Table 2). […] To determine the efficacy of antibiotics against biofilms, the minimum biofilm inhibitory concentration (bMIC) and the minimum biofilm eradication concentration (MBEC) were measured. […] After 24 hours of exposure to compounds, the lowest concentration of antibiotic that inhibited planktonic cell growth in the wells (bMIC) was determined.

Structure (SMILES)	MIC (C. crescentus CB15N [1]) [µM]	MSC (S. aureus FRI 100) [µM]	MSC relative to MIC (S. aureus FRI 100; S. aureus, stationary vs growing cells) [fold]	bMIC (C. crescentus CB15N [2]) [µM]	Minimum time required to obtain the MSC (S. aureus FRI 100; S. aureus, data not shown) [h]
N#CC(C#N)=NNc1cccc(Cl)c1 [CCCP, carbonyl cyanide m-chlorophenyl hydrazone]	5	>400	> 300	5	
OCC(CO)(CO)NCC(O)Cn1c2ccc(Cl)cc2c2cc(Cl)ccc21 (centres unmarked) [DCAP, 2-((3-(3,6-dichloro-9H-carbazol-9-yl)-2-hydroxypropyl)amino)-2-(hydroxymethyl)propane-1,3-diol]	15	75		20	6
